Marks after values point to notes of the source that are not given here.
Legend:
[1] = tested on: azoxymethane-induced aberrant crypt foci in rat colon; assay: Aberrant crypt foci (ACF) study in azoxymethane-treated rats, Example 1; format: in vivo, male Fisher 344 weanling rats; conditions: for Total ACF / Number of foci with 1 aberrant crypt per focus / Number of foci with 2 aberrant crypts per focus / Number of foci with 3 aberrant crypts per focus / Number of foci with 4 aberrant crypts per focus / Number of foci with 5(+) (5 and more) aberrant crypts per focus: Example 1, Table 3; for Total ACF / Number of foci with 1 aberrant crypt per focus / Number of foci with 2 aberrant crypts per focus / Number of foci with 3 aberrant crypts per focus / Number of foci with 4 aberrant crypts per focus / Number of foci with 5(+) (5 and more) aberrant crypts per focus / Number of AOM-induced ACF in rat colon in proximal part / Number of AOM-induced ACF in rat colon in distal part / Number of AOM-induced ACF in rat colon in total ACF in colon: Means ± SE, n=10; for Number of foci with 1 aberrant crypt per focus / Number of foci with 2 aberrant crypts per focus / Number of foci with 3 aberrant crypts per focus / Number of foci with 4 aberrant crypts per focus / Number of foci with 5(+) (5 and more) aberrant crypts per focus: proximal and distal colon; for Number of AOM-induced ACF in rat colon in proximal part / Number of AOM-induced ACF in rat colon in distal part / Number of AOM-induced ACF in rat colon in total ACF in colon: diet 13 weeks, inulin 100 g/kg and/or NSAID 0.2 g/kg diet; for Number of AOM-induced ACF in rat colon in proximal part: AOM 16mg/kg s.c. at 7 and 8 weeks of age; for Number of AOM-induced ACF in rat colon in distal part / Number of AOM-induced ACF in rat colon in total ACF in colon: AOM 16mg/kg s.c.
Protocol: The inulin used was Synergy1 (in short Syn1) and Synergy2 (in short Syn2), which are mixtures of oligofructose (RAFTILOSE®) and inulin of av. DP of 23 to 25 (RAFTILINE®) with a total content of inulin with a DP 9 and DP 10 of maximally 5 % by weight, at a weight ratio of 1:1 and 1:2, respectively, obtained from ORAFTI (Belgium) (RAFTILOSE® and RAFTILINE® are trade names of RT/TS, Belgium). The diets were prepared fresh every week and stored at 4°C until fed. The experimental diets were formulated based on AIN 93G diets. The ingredients were obtained from ICN Biomedicals, Aurora, OH, USA. All other chemicals were obtained from Sigma Chemical Co., St. Louis, MO, USA. All the protocols involving rats have been approved by the Institutional Animal Care and Use Committee of Alabama A& M University.
(§1) After 1 week of acclimatisation, 100 male Fisher 344 weanling rats were divided into 10 groups of 10 rats per group and assigned the AIN93G (Control) diet or the experimental diets for 13 weeks. For the study, temperature was maintained at 21°C ± 1°C, relative humidity at 50%, and light and dark cycles at 12 hours each. Feed and water were provided ad libitum. Weekly body weights and daily feed intake were recorded. After adaptation, all animals received two subcutaneous injections of azoxymethane (AOM) in saline at 16mg/kg body weight at 7 and 8 weeks of age. At the end of the feeding period, the animals were sacrificed using CO2 euthanasia after an overnight's fast. Accordingly, the colons of the rats were removed, flushed with potassium phosphate buffer 0.1M (pH 7.2) and examined for aberrant crypt foci (ACF) and tumours.

[2] = tested on: azoxymethane-induced aberrant crypt foci in rat colon; assay: Aberrant crypt foci (ACF) study in azoxymethane-treated rats, Example 2 (same protocol as Example 1); format: in vivo, Fisher 344 male rats
Protocol: as §1
In example 2, experiments similar to the ones of example 1 were carried out, to examine the anti-cancer effects of a composition containing a combination of RAFTILINE® HP and sulindac. The 4 groups each of 10 Fisher 344 male rats were given a diet containing either control diet, control diet + RAFTILINE®HP, control diet + sulindac, or control diet + RAFTILINE®HP + sulindac (RAFTILINE® : trade name of RT/TS, Belgium). The protocol of the experiments was the same as the one of example 1.

colorectal adenomas = conditions: patients with familial adenomatous polyposis; cited from earlier work
[3] = Example 2, Table 6, Means ± SEM
[4] = Example 2, inulin 100 g/kg and/or sulindac 0.2 g/kg diet, Means ± SE, n as indicated

Compound: CC(=O)Oc1ccccc1C(=O)O [Aspirin, acetyl salicylate]
- Total ACF [1]: 64.40 ± 3.46^c
- Number of foci with 1 aberrant crypt per focus [1]: 6.50 ± 1.12^b
- Number of foci with 2 aberrant crypts per focus [1]: 12.48 ± 1.23^b
- Number of foci with 3 aberrant crypts per focus [1]: 17.42 ± 1.94^b
- Number of foci with 4 aberrant crypts per focus [1]: 15.86 ± 1.82^c
- Number of foci with 5(+) (5 and more) aberrant crypts per focus [1]: 12.14 ± 0.86^b
- Number of AOM-induced ACF in rat colon in proximal part ([1]; Example 1): 10.26 ± 1.11^b
- Number of AOM-induced ACF in rat colon in distal part ([1]; Example 1): 54.14 ± 1.96^b
- Number of AOM-induced ACF in rat colon in total ACF in colon ([1]; Example 1): 64.40 ± 3.46^c

Compound: CN1C(C(=O)Nc2ccccn2)=C(O)c2ccccc2S1(=O)=O [Piroxicam]
- Total ACF [1]: 62.64 ± 2.86^c
- Number of foci with 1 aberrant crypt per focus [1]: 4.18 ± 1.04^c
- Number of foci with 2 aberrant crypts per focus [1]: 13.16 ± 1.54^b
- Number of foci with 4 aberrant crypts per focus [1]: 14.78 ± 1.94^c
- Number of foci with 5(+) (5 and more) aberrant crypts per focus [1]: 14.24 ± 0.94^b
- Number of AOM-induced ACF in rat colon in proximal part ([1]; Example 1): 12.16 ± 1.04^b
- Number of AOM-induced ACF in rat colon in distal part ([1]; Example 1): 50.48 ± 1.09^b
- Number of AOM-induced ACF in rat colon in total ACF in colon ([1]; Example 1): 62.64 ± 2.86^c

Compound: CC1=C(CC(=O)O)c2cc(F)ccc2/C1=C\c1ccc([S+](C)[O-])cc1 (centres unmarked) [Sulindac]
- Total ACF [1]: 73.87 ± 4.25 ^b
- Number of foci with 1 aberrant crypt per focus [1]: 4.08 ± 0.48^c
- Number of foci with 2 aberrant crypts per focus [1]: 12.14± 2.04^b
- Number of foci with 3 aberrant crypts per focus [1]: 20.37 ± 2.40^b
- Number of foci with 4 aberrant crypts per focus [1]: 20.48 ± 2.48^b
- Number of foci with 5(+) (5 and more) aberrant crypts per focus [1]: 16.80 ± 0.78^b
- Number of AOM-induced ACF in rat colon in proximal part ([1]; Example 1): 11.24 ± 0.90^b
- Number of AOM-induced ACF in rat colon in distal part ([1]; Example 1): 62.58 ± 1.68^b
- Number of AOM-induced ACF in rat colon in total ACF in colon ([1]; Example 1): 73.87 ± 4.25 ^b
- reduction of the incidence of ACF compared to the controls ([1]; Example 1, inulin at 10 % level and/or NSAID in diet): about 53%
- overall reduction in ACF (total colon) compared to the control diet ([2]; Example 2): about 52%
- reduction of ACF in the distal colon compared to the control diet group ([2]; Example 2): about 44%
- reduction of ACF in the proximal colon compared to the control diet group ([2]; Example 2): about 74%
- Number of foci with 1 aberrant crypt per focus [2, 3]: 3.50 ± 0.38 ^b
- Number of foci with 2 aberrant crypts per focus [2, 3]: 11.67 ± 1.19^b
- Number of foci with 3 aberrant crypts per focus [2, 3]: 22.17± 1.03 ^c
- Number of foci with 4 aberrant crypts per focus [2, 3]: 22.50 ± 0.86^b
- Number of foci with 5(+) (5 and more) aberrant crypts per focus [2, 3]: 15.33 ± 0.45 ^c
- Total ACF [2, 3]: 75.08 ± 1.93^d
- foci with 3, 4 and 5 or more aberrant crypts compared to the other groups ([2]; Example 2, statement in text): significantly lower (p<0.05)
- Number of AOM-induced ACF in rat colon in distal part [2, 4]: 64.50 ± 1.54^d
- Number of AOM-induced ACF in rat colon in proximal part [2, 4]: 10.58 ± 0.90^c
- Number of AOM-induced ACF in rat colon, Total ACF in colon [2, 4]: 75.1 ± 1.93
- number and size of colorectal adenomas compared to patients given placebo (colorectal adenomas): significantly reduce the number and size of colorectal adenomas

Reference: EP1428528A1, “Synergistic combinations of dietary fiber and NSAIDs for the treatment of cancer” (Tiense Suikerraffinaderij N.V., priority 2002, dated 2004)
